Source: patent publication US9663458B2, “Diaminoguanidine derivatives and application thereof in preparation of animal growth promoters used in feed” (priority 2014, dated 2017)
Where “and” joins values, the source holds several entries; their conditions need not be identical. Equal values may be shown once. Read-outs that look alike come from different tables or passages of the source.

Legend:
Clostridium perfringens = assay: microbe, parasite or virus in culture; type: cell-based
cherry valley ducks = assay: Feeding trial (ducks); type: in vivo; conditions: 20 ppm in basal diet, 30 days; for Average feed conversion efficiency: control 2.16; for Average weight gain: control 55.8
Description: 800 1-day-old cherry valley ducks were divided into 8 groups, 100 ducks in each group. […] The compounds of IST_007 series can substantially enhance the productivity of the ducks, concluded from the results.

[1] = system: yellow feather broilers (female); assay: Feeding trial (broilers); type: in vivo; conditions: 20 ppm in feed, 30 days; for Feed conversion efficiency: controls 2.15, 2.11, hydrochloride; for Average daily weight gain: controls 23.7, hydrochloride; for Average weight gain: controls 713, 712, hydrochloride; for Consumption: group of 50, controls 76.6, 75.2, hydrochloride
Description: 400 1-day-aged, healthy, fast-grown yellow feather broilers (female) in the same growing state and similar in weight were randomly divided into eight groups according to table 5, 50 broilers in each group. Broilers in each group were fed with different dosage of the IST_007 series compounds.

[2] = system: Duroc-YorkShire-Landrace crossbred lean pigs; assay: Feeding trial (pigs); conditions: 25 mg/kg mixed with feed, 14 days; for Average daily weight gain: controls 0.44, 0.43, hydrochloride; for Feed conversion efficiency: controls 2.13, 2.11, hydrochloride; for Average weight gain: controls 6.2, 6.1, hydrochloride; for Consumption: group of 15, controls 198.3, 192.9, hydrochloride
[3] = read-out: Minimum inhibitory concentration (MIC), strain CP-JM-1208-H, in vitro
[4] = read-out: Minimum inhibitory concentration (MIC), strain CP-JM-1210-B, in vitro
[5] = read-out: Minimum inhibitory concentration (MIC), strain CP-JM-1210-E, in vitro
[6] = read-out: Minimum inhibitory concentration (MIC), strain RA-FS-1308-1, in vitro
[7] = read-out: Minimum inhibitory concentration (MIC), strain RA-GD-1211-D, in vitro
[8] = read-out: Minimum inhibitory concentration (MIC), strain RA-HN-1211-C, in vitro

Structure (SMILES)	MIC (Clostridium perfringens; [3])	MIC (Clostridium perfringens; [4])	MIC (Clostridium perfringens; [5])	Survival rate (%) (cherry valley ducks)	Average feed conversion efficiency (cherry valley ducks)	Average weight gain (cherry valley ducks)	Survival rate (%) [1]	Feed conversion efficiency [1]	Average daily weight gain [1]	Average weight gain [1]	Consumption [1]	MIC (Riemerella anatipestifer; [6])	MIC (Riemerella anatipestifer; [7])	MIC (Riemerella anatipestifer; [8])	Average daily weight gain [2]	Feed conversion efficiency [2]	Average weight gain [2]	Consumption [2]	MIC (Riemerella anatipestifer; read-out: Minimum inhibitory concentration (MIC))
CCCCOc1ccc(C=NNC(=N)NN=Cc2ccc(OCCCC)cc2)cc1.Cl [IST_007_005, 1,3-bis[(4-butoxybenzylidene)amino]guanidine hydrochloride]	12.5 µg/mL	0.78 µg/mL	25 µg/mL	100%	2.07	62.4	100%	1.86 and 1.84	26.5 g and 26.2 g	796 g and 787 g	74.1 kg and 72.5 kg	1.56 µg/mL	1.56 µg/mL	1.56 µg/mL	–	–	–	–	–
CC(C)Oc1ccc(C=NNC(=N)NN=Cc2ccc(OC(C)C)cc2)cc1.Cl [IST_007_003, 1,3-bis[(4-isopropoxybenzylidene)amino]guanidine hydrochloride]	12.5 µg/mL	3.13 µg/mL	12.5 µg/mL	100%	2.03	63.6	100%	1.86 and 1.82	26.3 g and 26.5 g	791 g and 795 g	73.7 kg and 72.3 kg	1.56 µg/mL	1.56 µg/mL	1.56 µg/mL	0.56 kg/day and 0.58 kg/day	1.84 and 1.65	7.8 kg and 8.2 kg	215.3 kg and 203.4 kg	–
Cl.N=C(NN=Cc1ccc(OC2CCCC2)cc1)NN=Cc1ccc(OC2CCCC2)cc1 [IST_007_024, 1,3-bis[(4-cyclopentoxybenzylidene)amino]guanidine hydrochloride]	1.56 µg/mL	1.56 µg/mL	3.13 µg/mL	100%	2.09	63.1	–	–	–	–	–	0.39 µg/mL	0.78 µg/mL	0.39 µg/mL	–	–	–	–	–
CCCOc1ccc(C=NNC(=N)NN=Cc2ccc(OCCC)cc2)cc1.Cl [IST_007_028, 1,3-bis[(4-propoxybenzylidene)amino]guanidine hydrochloride]	1.56 µg/mL	1.56 µg/mL	1.56 µg/mL	100%	2.04	61.6	–	–	–	–	–	–	0.39 µg/mL	0.39 µg/mL	0.55 kg/day and 0.52 kg/day	1.75 and 1.85	7.7 kg and 7.3 kg	201.3 kg and 202.5 kg	1.56 µg/mL
COc1ccc(/C=N/NC(=N)N/N=C/c2ccc(OC)cc2)cc1.Cl [IST_007_001, 1,3-bis[(4-methoxybenzylidene)amino]guanidine hydrochloride]	12.5 µg/mL	1.56 µg/mL	50 µg/mL	100%	2.01	62.1	100%	1.88 and 1.91	25.5 g and 25.8 g	764 g and 775 g	71.7 kg and 73.8 kg	6.25 µg/mL	3.13 µg/mL	3.13 µg/mL	–	–	–	–	–
CCCCCOc1ccc(C=NNC(=N)NN=Cc2ccc(OCCCCC)cc2)cc1.Cl [IST_007_019, 1,3-bis[(4-pentoxybenzylidene)amino]guanidine hydrochloride]	> 200 µg/mL	> 200 µg/mL	> 200 µg/mL	–	–	–	–	–	–	–	–	> 200 µg/mL	0.39 µg/mL	> 200 µg/mL	–	–	–	–	–
CCCCCCCCOc1ccc(C=NNC(=N)NN=Cc2ccc(OCCCCCCCC)cc2)cc1.Cl [IST_007_020, 1,3-bis[(4-octoxybenzylidene)amino]guanidine hydrochloride]	> 200 µg/mL	> 200 µg/mL	> 200 µg/mL	–	–	–	–	–	–	–	–	> 200 µg/mL	> 200 µg/mL	> 200 µg/mL	–	–	–	–	–
CCC(CC)Oc1ccc(C=NNC(=N)NN=Cc2ccc(OC(CC)CC)cc2)cc1.Cl [IST_007_023, 1,3-bis[[4-(3-pentoxy)benzylidene]amino]guanidine hydrochloride]	12.5 µg/mL	12.5 µg/mL	12.5 µg/mL	100%	2.05	62.4	–	–	–	–	–	1.56 µg/mL	0.78 µg/mL	1.56 µg/mL	–	–	–	–	–
CCOc1ccc(C=NNC(=N)NN=Cc2ccc(OCC)cc2)cc1.Cl [IST_007_002, 1,3-bis[(4-ethoxybenzylidene)amino]guanidine hydrochloride]	> 100 µg/mL	0.2 µg/mL	> 100 µg/mL	–	–	–	–	–	–	–	–	> 100 µg/mL	> 100 µg/mL	> 100 µg/mL	–	–	–	–	–
CCC(C)Oc1ccc(C=NNC(=N)NN=Cc2ccc(OC(C)CC)cc2)cc1.Cl (centres unmarked) [IST_007_022, 1,3-bis[(4-sec-butoxybenzylidene)amino]guanidine hydrochloride]	12.5 µg/mL	12.5 µg/mL	12.5 µg/mL	100%	2.08	61.3	–	–	–	–	–	1.56 µg/mL	0.2 µg/mL	1.56 µg/mL	–	–	–	–	–
Cl.N=C(NN=Cc1ccc(OCc2ccccc2)cc1)NN=Cc1ccc(OCc2ccccc2)cc1 [IST_007_025, 1,3-bis[(4-benzyloxybenzylidene)amino]guanidine hydrochloride]	> 200 µg/mL	100 µg/mL	> 200 µg/mL	–	–	–	–	–	–	–	–	> 200 µg/mL	0.39 µg/mL	> 200 µg/mL	–	–	–	–	–
